Data: ChEMBL document CHEMBL1201862, “PubChem BioAssay data set” (2004)
Activity calls are given as the source filed them.

Key:
[1] = M. tuberculosis H37Rv growth inhibitors, H37Rv strain (AID 1626); format: functional
Bcl-2-like protein 10 = biological target: T1, Bcl-2-like protein 10 (Homo sapiens, UniProt Q9HD36); assay: displacers of TR3 peptide from Bcl-B, primary screen, selectivity assay for Bfl-1 inhibitor project, biochemical, fluorescence polarization, FITC-TR3 peptide (AID 748);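 also: fluorescence polarization from a fluorescein-labelled TR3 peptide binding purified Bcl-B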
T1 sequence (Q9HD36 whole entry): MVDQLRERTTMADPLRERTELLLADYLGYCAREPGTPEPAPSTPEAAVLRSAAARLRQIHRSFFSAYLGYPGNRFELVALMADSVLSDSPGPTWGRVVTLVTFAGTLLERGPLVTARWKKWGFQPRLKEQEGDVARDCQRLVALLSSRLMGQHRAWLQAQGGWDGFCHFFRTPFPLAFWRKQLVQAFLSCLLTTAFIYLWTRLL

[2] = biological target: T2, Carboxy-terminal domain RNA polymerase II polypeptide A small phosphatase 1 (Homo sapiens, UniProt Q9GZU7); assay: inhibitors of CTDSP1, concentration-response testing, biochemical assay, absorbance-based, actives from ultra-high-throughput screening (AID 540297); format: functional
T2 sequence (Q9GZU7 whole entry): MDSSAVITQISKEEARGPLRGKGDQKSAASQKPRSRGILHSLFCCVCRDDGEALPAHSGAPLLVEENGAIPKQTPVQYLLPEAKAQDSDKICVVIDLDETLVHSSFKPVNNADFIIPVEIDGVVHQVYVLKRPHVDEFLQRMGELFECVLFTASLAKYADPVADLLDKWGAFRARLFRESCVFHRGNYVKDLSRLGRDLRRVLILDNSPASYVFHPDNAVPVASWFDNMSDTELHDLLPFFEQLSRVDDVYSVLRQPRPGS

Ion channel NompC = Ion channel NompC (Danio rerio, UniProt Q7T1G6); assay: Fluorescence counterscreen assay for TRPML3 agonists: dose response cell-based high-throughput screening assay to identify agonists of the transient receptor potential channel N1 (TRPN1). [Related pubchem assays: 1526, 1424, 1448 ]; format: functional
Mucolipin-3 = biological target: T3, Mucolipin-3 (Homo sapiens, UniProt Q8TDD5); assay: Dose response cell-based high-throughput screening assay for agonists of the transient receptor potential channel ML3 (TRPML3). [Related pubchem assays: 1526, 1424, 1448 ]; format: functional
T3 sequence (Q8TDD5 whole entry): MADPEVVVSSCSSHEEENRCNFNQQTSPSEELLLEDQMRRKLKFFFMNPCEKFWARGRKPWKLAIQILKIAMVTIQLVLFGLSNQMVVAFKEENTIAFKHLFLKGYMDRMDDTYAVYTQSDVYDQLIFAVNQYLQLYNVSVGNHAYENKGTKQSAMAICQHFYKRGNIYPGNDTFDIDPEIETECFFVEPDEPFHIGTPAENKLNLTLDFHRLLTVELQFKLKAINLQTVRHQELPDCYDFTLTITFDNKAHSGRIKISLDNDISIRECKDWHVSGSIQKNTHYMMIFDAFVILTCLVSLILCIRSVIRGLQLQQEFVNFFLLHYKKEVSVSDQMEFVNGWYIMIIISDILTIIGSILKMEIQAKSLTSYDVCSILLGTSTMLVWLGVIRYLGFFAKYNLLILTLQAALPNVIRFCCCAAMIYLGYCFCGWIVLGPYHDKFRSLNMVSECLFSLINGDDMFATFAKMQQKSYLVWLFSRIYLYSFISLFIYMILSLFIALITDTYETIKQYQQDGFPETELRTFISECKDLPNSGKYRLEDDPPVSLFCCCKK

cells = format: functional, cell-based; conditions: HEK-CNG
[3] = biological target: T4, DNA dC->dU-editing enzyme APOBEC-3A (Homo sapiens, UniProt P31941); assay: Dose Response confirmation of small molecule APOBEC3A DNA Deaminase Inhibitors via a fluorescence-based single-stranded DNA deaminase assay. [Related pubchem assays (depositor defined):AID493011, AID493024]; format: functional
Galanin receptor type 3 = Galanin receptor type 3 (Homo sapiens, UniProt O60755); assay: Fluorescence-based cell-based primary high throughput dose response assay to identify antagonists of the Galanin Receptor 3 (GalR3).; format: functional
[4] = biological target: T5, DNA dC->dU-editing enzyme APOBEC-3G (Homo sapiens, UniProt Q9HC16); format: functional
[5] = biological target: G-protein coupled receptor 35 (Homo sapiens, UniProt Q9HC97); assay: GPR35 antagonists blocking zaprinast-driven arrestin recruitment, primary screen, imaging, U2OS, beta-arrestin-GFP, zaprinast agonist (AID 2058); format: functional;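 also: antagonist potency meaning inhibition of agonist-induced arrestin redistribution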
HEK293 = assay: inhibitors of LMP1-driven NF-kB reporter, dose response, cell-based, HEK293, luciferase, cherry-pick (AID 588343); format: functional; conditions: Homo sapiens
[6] = biological target: T6, Zinc finger protein mex-5 (Caenorhabditis elegans, UniProt Q9XUB2); assay: MEX-5/TCR-2 RNA interaction inhibitors, dose response, biochemical, C. elegans, fluorescence polarization (AID 1960)
T6 sequence (Q9XUB2 whole entry): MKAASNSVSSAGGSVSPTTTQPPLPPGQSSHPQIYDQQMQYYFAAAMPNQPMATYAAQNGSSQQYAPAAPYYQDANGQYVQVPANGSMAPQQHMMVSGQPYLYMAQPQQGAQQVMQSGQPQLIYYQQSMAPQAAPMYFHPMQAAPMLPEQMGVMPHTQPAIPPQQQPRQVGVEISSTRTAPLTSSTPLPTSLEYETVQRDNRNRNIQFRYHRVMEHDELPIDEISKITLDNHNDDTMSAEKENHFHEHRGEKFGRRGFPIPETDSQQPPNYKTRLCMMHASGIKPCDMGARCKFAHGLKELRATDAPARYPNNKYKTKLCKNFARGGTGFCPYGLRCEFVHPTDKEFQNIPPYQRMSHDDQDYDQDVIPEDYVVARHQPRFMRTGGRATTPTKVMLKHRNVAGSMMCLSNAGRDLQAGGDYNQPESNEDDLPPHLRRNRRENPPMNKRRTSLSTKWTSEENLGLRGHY

[7] = biological target: T7, RNA-binding protein pos-1 (Caenorhabditis elegans, UniProt G5EF15); assay: inhibitors of POS-1/mex-3 RNA binding, dose response, biochemical, fluorescence polarization (AID 1964);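 also: purified POS-1 fused to maltose binding protein made in E. coli; potency of compounds blocking POS-1 binding to fluorescent RNA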
T7 sequence (G5EF15 whole entry): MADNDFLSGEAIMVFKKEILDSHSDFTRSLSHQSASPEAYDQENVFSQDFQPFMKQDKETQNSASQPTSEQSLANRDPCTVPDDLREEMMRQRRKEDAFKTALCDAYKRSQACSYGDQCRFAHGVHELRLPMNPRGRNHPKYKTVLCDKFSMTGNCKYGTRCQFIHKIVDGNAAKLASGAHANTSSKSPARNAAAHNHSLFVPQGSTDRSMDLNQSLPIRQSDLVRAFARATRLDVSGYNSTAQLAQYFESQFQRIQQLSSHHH

[8] = biological target: T8, Probable nicotinate-nucleotide adenylyltransferase (Staphylococcus aureus (strain N315), UniProt P65502); format: functional, Staphylococcus aureus subsp. aureus N315; conditions: read-out: IC50_Mean;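 as to IC50 Mean: confirmatory dose-response retesting of NadD inhibitor hits first found in an ultra-high-throughput screen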
[9] = HIV-1 Env-mediated cell fusion inhibitors, dose response, CCR5-tropic Env (AID 2279); format: functional
[10] = biological target: T8, Probable nicotinate-nucleotide adenylyltransferase; format: functional, Staphylococcus aureus subsp. aureus N315
Fatty acid synthase [11] = biological target: T9, Fatty acid synthase (Homo sapiens, UniProt P49327); assay: FAS thioesterase domain inhibitors, dose response, biochemical, kinetic fluorescence intensity (AID 624326); format: functional;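 also: rate of fluorescence rise from hydrolysis of a fluorogenic O-methyl fluorescein ester substrate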
Fatty acid synthase [12] = biological target: T9, Fatty acid synthase; assay: FAS thioesterase domain inhibitors, dose response, biochemical, endpoint fluorescence intensity, uHTS hits (AID 624327); format: functional;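 also: fluorescence from hydrolysis of an O-methyl fluorescein acyl ester substrate by the enzyme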
[13] = biological target: T4, DNA dC->dU-editing enzyme APOBEC-3A; assay: APOBEC3A DNA deaminase inhibitors, dose response, biochemical (AID 504722); format: functional
[14] = biological target: T5, DNA dC->dU-editing enzyme APOBEC-3G; assay: Dose Response confirmation of small molecule APOBEC3G DNA Deaminase Inhibitors via a fluorescence-based single-stranded DNA deaminase assay. [Related pubchem assays (depositor defined):AID493012, AID493028]; format: functional

T5 sequence (Q9HC16 whole entry): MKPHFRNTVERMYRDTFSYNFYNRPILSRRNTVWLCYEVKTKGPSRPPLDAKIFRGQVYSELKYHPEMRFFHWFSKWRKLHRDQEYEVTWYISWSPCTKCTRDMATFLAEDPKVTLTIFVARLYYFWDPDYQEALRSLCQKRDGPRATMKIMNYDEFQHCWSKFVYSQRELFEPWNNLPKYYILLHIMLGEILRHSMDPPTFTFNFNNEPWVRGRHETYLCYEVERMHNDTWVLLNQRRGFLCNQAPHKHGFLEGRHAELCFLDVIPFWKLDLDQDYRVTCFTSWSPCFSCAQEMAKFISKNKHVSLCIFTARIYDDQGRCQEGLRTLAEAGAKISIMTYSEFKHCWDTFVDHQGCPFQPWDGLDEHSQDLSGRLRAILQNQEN
G-protein coupled receptor 35, sequence (Q9HC97 whole entry): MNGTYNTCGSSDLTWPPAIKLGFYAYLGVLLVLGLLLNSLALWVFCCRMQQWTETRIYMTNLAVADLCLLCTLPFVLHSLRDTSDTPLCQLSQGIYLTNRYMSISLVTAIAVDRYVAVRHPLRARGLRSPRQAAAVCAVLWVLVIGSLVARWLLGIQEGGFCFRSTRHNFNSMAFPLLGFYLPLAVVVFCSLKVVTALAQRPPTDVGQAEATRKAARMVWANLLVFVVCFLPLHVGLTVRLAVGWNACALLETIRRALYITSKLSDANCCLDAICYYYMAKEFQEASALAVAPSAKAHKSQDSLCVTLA
T8 sequence (P65502 whole entry, the tested form may be a part): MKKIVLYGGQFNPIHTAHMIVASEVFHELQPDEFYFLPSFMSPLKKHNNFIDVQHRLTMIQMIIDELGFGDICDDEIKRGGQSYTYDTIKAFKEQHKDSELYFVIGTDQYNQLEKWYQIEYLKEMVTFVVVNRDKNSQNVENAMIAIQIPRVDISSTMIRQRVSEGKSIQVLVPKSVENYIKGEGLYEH
T9 sequence (P49327 whole entry, the tested form may be a part): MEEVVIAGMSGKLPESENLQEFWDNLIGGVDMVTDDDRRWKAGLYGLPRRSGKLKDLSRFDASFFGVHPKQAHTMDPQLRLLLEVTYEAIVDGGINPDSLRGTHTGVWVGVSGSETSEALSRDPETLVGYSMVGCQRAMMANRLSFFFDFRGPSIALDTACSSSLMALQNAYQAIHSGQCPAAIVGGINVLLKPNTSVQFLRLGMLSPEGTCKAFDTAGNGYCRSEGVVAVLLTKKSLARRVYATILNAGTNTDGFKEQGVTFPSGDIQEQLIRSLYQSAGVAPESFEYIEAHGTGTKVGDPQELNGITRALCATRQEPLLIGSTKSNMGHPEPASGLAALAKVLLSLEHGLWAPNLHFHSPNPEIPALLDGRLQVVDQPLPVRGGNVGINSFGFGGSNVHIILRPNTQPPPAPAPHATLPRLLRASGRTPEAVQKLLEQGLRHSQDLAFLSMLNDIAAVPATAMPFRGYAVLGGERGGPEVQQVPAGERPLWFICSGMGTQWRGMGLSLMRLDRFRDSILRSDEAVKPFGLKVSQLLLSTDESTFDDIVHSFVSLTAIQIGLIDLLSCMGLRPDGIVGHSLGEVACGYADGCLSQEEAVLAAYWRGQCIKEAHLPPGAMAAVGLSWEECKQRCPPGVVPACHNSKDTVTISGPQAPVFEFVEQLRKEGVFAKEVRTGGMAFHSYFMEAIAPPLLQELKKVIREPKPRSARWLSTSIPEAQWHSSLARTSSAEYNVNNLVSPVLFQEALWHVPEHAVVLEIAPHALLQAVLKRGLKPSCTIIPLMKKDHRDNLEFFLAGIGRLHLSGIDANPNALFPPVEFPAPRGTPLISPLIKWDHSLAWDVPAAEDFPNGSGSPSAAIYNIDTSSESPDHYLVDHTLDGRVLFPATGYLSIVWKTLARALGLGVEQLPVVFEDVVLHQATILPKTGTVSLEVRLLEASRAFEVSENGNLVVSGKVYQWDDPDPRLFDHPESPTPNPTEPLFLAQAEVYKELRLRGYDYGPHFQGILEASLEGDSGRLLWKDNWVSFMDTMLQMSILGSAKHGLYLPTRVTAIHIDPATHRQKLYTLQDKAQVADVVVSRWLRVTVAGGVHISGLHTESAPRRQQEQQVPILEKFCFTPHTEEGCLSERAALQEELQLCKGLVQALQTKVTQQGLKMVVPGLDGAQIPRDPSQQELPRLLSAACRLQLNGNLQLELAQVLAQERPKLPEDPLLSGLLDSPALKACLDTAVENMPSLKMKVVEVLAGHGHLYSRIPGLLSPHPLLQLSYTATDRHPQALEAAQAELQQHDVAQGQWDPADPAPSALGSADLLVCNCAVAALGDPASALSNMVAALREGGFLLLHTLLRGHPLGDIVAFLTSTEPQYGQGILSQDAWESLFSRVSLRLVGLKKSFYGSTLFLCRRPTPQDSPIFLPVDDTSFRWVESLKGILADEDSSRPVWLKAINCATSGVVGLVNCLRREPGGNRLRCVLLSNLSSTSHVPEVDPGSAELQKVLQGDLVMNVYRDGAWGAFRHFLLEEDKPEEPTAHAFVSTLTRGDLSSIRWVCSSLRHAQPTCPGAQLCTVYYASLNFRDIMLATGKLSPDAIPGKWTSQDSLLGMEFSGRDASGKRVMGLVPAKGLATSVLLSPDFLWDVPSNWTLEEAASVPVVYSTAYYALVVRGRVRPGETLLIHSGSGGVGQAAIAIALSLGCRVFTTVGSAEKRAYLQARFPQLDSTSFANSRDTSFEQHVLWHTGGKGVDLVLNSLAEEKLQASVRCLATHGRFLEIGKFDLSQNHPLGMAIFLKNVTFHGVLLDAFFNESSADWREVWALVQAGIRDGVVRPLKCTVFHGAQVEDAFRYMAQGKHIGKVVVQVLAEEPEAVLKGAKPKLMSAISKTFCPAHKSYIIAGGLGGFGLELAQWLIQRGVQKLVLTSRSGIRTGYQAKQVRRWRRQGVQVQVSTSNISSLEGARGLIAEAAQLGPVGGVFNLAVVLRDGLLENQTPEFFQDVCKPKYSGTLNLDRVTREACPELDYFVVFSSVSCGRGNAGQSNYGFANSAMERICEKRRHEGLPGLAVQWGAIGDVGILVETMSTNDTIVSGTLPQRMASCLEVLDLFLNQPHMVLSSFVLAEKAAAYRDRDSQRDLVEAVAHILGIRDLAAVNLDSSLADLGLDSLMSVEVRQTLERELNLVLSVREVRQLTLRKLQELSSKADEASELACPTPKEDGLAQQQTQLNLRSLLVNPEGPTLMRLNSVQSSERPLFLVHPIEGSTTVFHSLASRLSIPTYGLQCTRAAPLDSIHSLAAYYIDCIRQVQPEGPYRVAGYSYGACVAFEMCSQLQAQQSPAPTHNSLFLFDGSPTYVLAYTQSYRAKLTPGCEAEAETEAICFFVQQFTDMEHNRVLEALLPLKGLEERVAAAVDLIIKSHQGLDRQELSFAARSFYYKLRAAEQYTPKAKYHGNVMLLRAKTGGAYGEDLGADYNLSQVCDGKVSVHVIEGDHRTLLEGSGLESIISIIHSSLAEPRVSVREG
T4 sequence (P31941 whole entry): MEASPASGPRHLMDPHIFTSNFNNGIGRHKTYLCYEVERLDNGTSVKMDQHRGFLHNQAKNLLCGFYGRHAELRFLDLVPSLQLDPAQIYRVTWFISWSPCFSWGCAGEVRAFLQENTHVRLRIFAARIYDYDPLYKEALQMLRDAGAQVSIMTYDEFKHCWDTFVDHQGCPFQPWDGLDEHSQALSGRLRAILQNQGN
Galanin receptor type 3, sequence (O60755 whole entry): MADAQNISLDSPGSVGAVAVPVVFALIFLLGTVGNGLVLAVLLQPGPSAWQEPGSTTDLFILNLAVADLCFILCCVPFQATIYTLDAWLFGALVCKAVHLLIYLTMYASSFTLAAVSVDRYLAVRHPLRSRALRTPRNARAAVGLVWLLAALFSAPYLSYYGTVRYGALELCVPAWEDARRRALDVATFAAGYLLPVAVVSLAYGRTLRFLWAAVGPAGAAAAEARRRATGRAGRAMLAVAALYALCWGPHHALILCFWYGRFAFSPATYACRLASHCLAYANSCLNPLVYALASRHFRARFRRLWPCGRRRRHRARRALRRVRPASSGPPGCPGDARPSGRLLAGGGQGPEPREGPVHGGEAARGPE

## COc1ccc(N)cc1-n1cnnn1
[1]
  IC50: > 100 µM (active)

## O=C(COC(=O)c1cncc(Br)c1)NCc1ccco1
Bcl-2-like protein 10
  IC50: 46.9 µM (active)
[2]
  IC50: 4.6 µM (active)

## C[N+](C)(C)C/C=C1/COCO1
Ion channel NompC
  EC50: 17.6 µM (not active)
Mucolipin-3
  EC50: 4.76 µM (active)
cells
  EC50: > 29.9 µM (inactive)
[3]
  IC50: 1.89 µM (active)
Galanin receptor type 3
  IC50: > 29.9 µM (inactive)
[4]
  IC50: 1.89 µM (active)

## CC1(C)Cc2c(ccc3ccccc23)/C(=C/C(=O)N2CCCCC2)N1
[5]
  IC50: 11 µM (inactive)
HEK293
  AC50: 26.1 µM (active)

## COc1cccc(C2C3CN(C)CC=C3C(C#N)=C(N)C2(C#N)C#N)c1OC (stereo unspecified)
[5]
  IC50: 2.74 µM (active)
[6]
  EC50: 8.49 µM (active)
[7]
  EC50: 2.18 µM (inconclusive)

## COc1ccc(-c2csc(NC(=O)c3ccccc3NS(=O)(=O)c3ccc(C)cc3)n2)cc1
[8]
  IC50: 60.1 µM (active)
[9]
  IC50: 3.03 µM (active)
[10]
  IC50: 6.12 µM (active)
Fatty acid synthase [11]
  IC50: 6.07 µM (active)
Fatty acid synthase [12]
  IC50: 10.2 µM (active)

## COCCCn1c(S)nnc1-c1ccc(Cl)cc1
[13]
  IC50: > 100 µM (inactive)
[14]
  IC50: 4.57 µM (active)
